The nature of data set [1]: refractive index (Na D-line) (dimensionless). The conditions noted are these: 293.15 K; 101.33 kPa; Liquid.
The conditions of data set [2]: Liquid; for mass density: 293.15 K, 101.33 kPa.

Each structure is given as a SMILES string. ± gives the expanded uncertainty stated by the source.

For orientation: refractive index means a measure of how strongly the sample bends light. By mass density is commonly meant the mass of a sample divided by its volume.

Take `CCCOCCC` [dipropyl ether]: the refractive index in data set [1] worked out at 1.3813 ± 0.0064. In data set [2], the mass density was 736.1 ± 8.8 kg/m3 and the Normal boiling temperature stood at 90.08 ± 0.4 °C.
As for `CC(C)OC(C)C` [diisopropyl ether], in data set [2], the mass density was 723.9 ± 2.4 kg/m3 and the Normal boiling temperature amounted to 68.40 ± 0.4 °C.
As to `CCC(=O)O` [propanoic acid], the refractive index in data set [1] stood at 1.3811 ± 0.0017. Besides, in data set [2], the mass density amounted to 993 ± 0.74 kg/m3 and the Normal boiling temperature was found to be 141.2 ± 0.4 °C.
